# From patent publication US20070128217A1 (priority 2003, published 2007)
# Columns and labels:
# [1] = system: antibodies in sera from SARS patients (sera 1a, 1b, 2, 6, 37, 62, London, SARS-yellow, SARS-green); type: binding, human; parameters: Binding of serum 6 to linear peptides of protein X1 of SARS-CoV Urbani / Binding of serum 37 to linear peptides of protein X1 of SARS-CoV Urbani / Binding of serum 6 to looped/cyclic peptide (PEPSCAN-ELISA) / Binding of serum 37 to looped/cyclic peptide (PEPSCAN-ELISA) / Binding of serum 37 to looped/cyclic peptides of protein X1 of SARS-CoV Urbani / Binding of serum 6 to linear peptides of protein X2 / Binding of serum 37 to linear peptides of protein X2 / Binding of serum 37 to looped/cyclic peptides of protein X2 of SARS-CoV Urbani / Binding of serum 6 to linear peptides of protein M of SARS-CoV Urbani / Binding of serum 37 to linear peptides of protein M of SARS-CoV Urbani / Binding of serum 6 to looped/cyclic peptides of protein M of SARS-CoV Urbani / Binding of serum 37 to looped/cyclic peptides of protein M of SARS-CoV Urbani / Binding of serum 6 to linear peptides of protein X3 of SARS-CoV Urbani / Binding of serum 37 to linear peptides of protein X3 of SARS-CoV Urbani / Binding of serum 37 to looped/cyclic peptides of protein X3 of SARS-CoV Urbani / Binding of serum 6 to linear peptides of protein X4 of SARS-CoV Urbani / Binding of serum 37 to linear peptides of protein X4 of SARS-CoV Urbani / Binding of serum 37 to looped/cyclic peptides of protein X4 of SARS-CoV Urbani / Binding of serum 6 to linear peptides of protein X5 of SARS-CoV Urbani / Binding of serum 37 to linear peptides of protein X5 of SARS-CoV Urbani / Binding of serum 37 to looped/cyclic peptides of protein X5 of SARS-CoV Urbani / Binding of serum 6 to linear peptides of protein N of SARS-CoV Urbani / Binding of serum 37 to linear peptides of protein N of SARS-CoV Urbani / Binding of serum 6 to linear peptide (PEPSCAN-ELISA) / Binding of serum 1a to looped/cyclic peptides of protein N of SARS-CoV Urbani / Binding of serum 1b to looped/cyclic peptides of protein N of SARS-CoV Urbani / Binding of serum 2 to looped/cyclic peptides of protein N of SARS-CoV Urbani / Binding of serum 6 to looped/cyclic peptides of protein N of SARS-CoV Urbani / Binding of serum 37 to looped/cyclic peptides of protein N of SARS-CoV Urbani / Binding of serum 62 to looped/cyclic peptides of protein N of SARS-CoV Urbani / Binding of serum London to looped/cyclic peptides of protein N of SARS-CoV Urbani / Binding of serum SARS-green to looped/cyclic peptides of protein N of SARS-CoV Urbani: unit not given here
# [2] = system: control sera (pooled serum of ten healthy LUMC hospital workers; commercial negative donor pooled serum from the Dutch bloodbank); type: binding, human; parameters: Binding of Control serum LUMC to linear peptides / Binding of Control serum Blood-bank to linear peptides / Binding of Control serum LUMC to looped peptides / Binding of Control Serum Blood-Bank to Looped peptides / Binding of Control serum LUMC to linear peptides of the protein M of SARS-CoV Urbani / Binding of Control serum Blood-bank to linear peptides of the protein M of SARS-CoV Urbani / Binding of Control serum LUMC to looped peptides of the protein M of SARS-CoV Urbani / Binding of Control Serum Blood-Bank to Looped peptides of the protein M of SARS-CoV Urbani: unit not given here
# [3] = system: rabbit serum obtained by immunizing a rabbit with the SARS-CoV strain Frankfurt 1; type: binding; parameters: Binding of a rabbit serum to linear peptides / Binding of a rabbit serum to looped peptides / Rabbit serum linear peptides / Rabbit serum looped peptides / Binding of a rabbit serum to linear peptides of protein N of SARS-CoV Urbani (Rabbit serum linear peptides) / Binding of a rabbit serum to looped/cyclic peptides of protein N of SARS-CoV Urbani (Rabbit serum looped peptides): unit not given here
sequence,measurement,setting,value
SLHKLLQTLVLKMLH,Binding of serum 1a to linear peptides of protein X2,[1],0.7
same,Binding of serum 1a to looped/cyclic peptides of protein X2 of SARS-CoV Urbani,[1],0.6
same,Binding of serum 1b to linear peptides of protein X2,[1],0.5
same,Binding of serum 1b to looped/cyclic peptides of protein X2 of SARS-CoV Urbani,[1],0.5
same,Binding of serum 2 to linear peptides of protein X2,[1],0.3
same,Binding of serum 2 to looped/cyclic peptides of protein X2 of SARS-CoV Urbani,[1],0.4
same,Binding of serum 6 to linear peptides of protein X2,[1],0.3
same,Binding of serum 6 to looped/cyclic peptides of protein X2 of SARS-CoV Urbani,[1],0.3
same,Binding of serum 37 to linear peptides of protein X2,[1],0.4
same,Binding of serum 37 to looped/cyclic peptides of protein X2 of SARS-CoV Urbani,[1],0.4
same,Binding of serum 62 to linear peptides of protein X2,[1],0.6
same,Binding of serum 62 to looped/cyclic peptides of protein X2 of SARS-CoV Urbani,[1],0.7
same,Binding of serum London to linear peptides of protein X2,[1],0.3
same,Binding of serum London to looped/cyclic peptides of protein X2 of SARS-CoV Urbani,[1],0.3
same,Binding of serum SARS-green to linear peptides of protein X2,[1],0.4
same,Binding of serum SARS-green to looped/cyclic peptides of protein X2 of SARS-CoV Urbani,[1],0.3
same,Binding of serum SARS-yellow to linear peptides of protein X2,[1],0.1
same,Binding of serum SARS-yellow to looped/cyclic peptides of protein X2 of SARS-CoV Urbani,[1],0.5
same,Binding of Control Serum Blood-Bank to Looped peptides,[2],0.7
same,Binding of Control serum Blood-bank to linear peptides,[2],0.6
same,Binding of Control serum LUMC to linear peptides,[2],0.3
same,Binding of Control serum LUMC to looped peptides,[2],0.7
same,Binding of a rabbit serum to linear peptides,[3],0.3
same,Binding of a rabbit serum to looped peptides,[3],0.5
SLPFGWLVIGVAFLA,Binding of serum 1a to linear peptides of protein X1 of SARS-CoV Urbani,[1],0.7
same,Binding of serum 1a to looped/cyclic peptide (PEPSCAN-ELISA),[1],0.3
same,Binding of serum 1b to linear peptides of protein X1 of SARS-CoV Urbani,[1],0.6
same,Binding of serum 1b to looped/cyclic peptide (PEPSCAN-ELISA),[1],0.2
same,Binding of serum 2 to linear peptides of protein X1 of SARS-CoV Urbani,[1],0.5
same,Binding of serum 2 to looped/cyclic peptide (PEPSCAN-ELISA),[1],0.2
same,Binding of serum 6 to linear peptides of protein X1 of SARS-CoV Urbani,[1],0.4
same,Binding of serum 6 to looped/cyclic peptide (PEPSCAN-ELISA),[1],0.0
same,Binding of serum 37 to linear peptides of protein X1 of SARS-CoV Urbani,[1],0.6
same,Binding of serum 37 to looped/cyclic peptide (PEPSCAN-ELISA),[1],0.3
same,Binding of serum 62 to linear peptides of protein X1 of SARS-CoV Urbani,[1],0.5
same,Binding of serum 62 to looped/cyclic peptide (PEPSCAN-ELISA),[1],0.3
same,Binding of serum London to linear peptides of protein X1 of SARS-CoV Urbani,[1],0.2
same,Binding of serum London to looped/cyclic peptide (PEPSCAN-ELISA),[1],0.2
same,Binding of serum SARS-green to linear peptides of protein X1 of SARS-CoV Urbani,[1],0.2
same,Binding of serum SARS-green to looped/cyclic peptide (PEPSCAN-ELISA),[1],0.3
same,Binding of serum SARS-yellow to linear peptides of protein X1 of SARS-CoV Urbani,[1],0.4
same,Binding of serum SARS-yellow to looped/cyclic peptide (PEPSCAN-ELISA),[1],0.2
same,Binding of Control Serum Blood-Bank to Looped peptides,[2],0.4
same,Binding of Control serum Blood-bank to linear peptides,[2],0.6
same,Binding of Control serum LUMC to linear peptides,[2],0.6
same,Binding of Control serum LUMC to looped peptides,[2],0.3
same,Binding of a rabbit serum to linear peptides,[3],0.4
same,Binding of a rabbit serum to looped peptides,[3],0.1
SLYMAISPKFTTSLS,Binding of serum 1a to linear peptides of protein X2,[1],0.7
same,Binding of serum 1a to looped/cyclic peptides of protein X2 of SARS-CoV Urbani,[1],0.6
same,Binding of serum 1b to linear peptides of protein X2,[1],0.5
same,Binding of serum 1b to looped/cyclic peptides of protein X2 of SARS-CoV Urbani,[1],0.6
same,Binding of serum 2 to linear peptides of protein X2,[1],0.5
same,Binding of serum 2 to looped/cyclic peptides of protein X2 of SARS-CoV Urbani,[1],0.3
same,Binding of serum 6 to linear peptides of protein X2,[1],0.4
same,Binding of serum 6 to looped/cyclic peptides of protein X2 of SARS-CoV Urbani,[1],0.4
same,Binding of serum 37 to linear peptides of protein X2,[1],0.6
same,Binding of serum 37 to looped/cyclic peptides of protein X2 of SARS-CoV Urbani,[1],0.4
same,Binding of serum 62 to linear peptides of protein X2,[1],0.6
same,Binding of serum 62 to looped/cyclic peptides of protein X2 of SARS-CoV Urbani,[1],0.5
same,Binding of serum London to linear peptides of protein X2,[1],0.6
same,Binding of serum London to looped/cyclic peptides of protein X2 of SARS-CoV Urbani,[1],0.3
same,Binding of serum SARS-green to linear peptides of protein X2,[1],0.6
same,Binding of serum SARS-green to looped/cyclic peptides of protein X2 of SARS-CoV Urbani,[1],0.5
same,Binding of serum SARS-yellow to linear peptides of protein X2,[1],0.6
same,Binding of serum SARS-yellow to looped/cyclic peptides of protein X2 of SARS-CoV Urbani,[1],0.6
same,Binding of Control Serum Blood-Bank to Looped peptides,[2],0.6
same,Binding of Control serum Blood-bank to linear peptides,[2],0.7
same,Binding of Control serum LUMC to linear peptides,[2],0.6
same,Binding of Control serum LUMC to looped peptides,[2],0.9
same,Binding of a rabbit serum to linear peptides,[3],0.2
same,Binding of a rabbit serum to looped peptides,[3],0.3
SMWSFNPETNILLNV,Binding of serum 1a to linear peptides of protein M of SARS-CoV Urbani,[1],0.8
same,Binding of serum 1a to looped/cyclic peptides of protein M of SARS-CoV Urbani,[1],0.7
same,Binding of serum 1b to linear peptides of protein M of SARS-CoV Urbani,[1],0.7
same,Binding of serum 1b to looped/cyclic peptides of protein M of SARS-CoV Urbani,[1],0.1
same,Binding of serum 2 to linear peptides of protein M of SARS-CoV Urbani,[1],0.5
same,Binding of serum 2 to looped/cyclic peptides of protein M of SARS-CoV Urbani,[1],0.8
same,Binding of serum 6 to linear peptides of protein M of SARS-CoV Urbani,[1],0.5
same,Binding of serum 6 to looped/cyclic peptides of protein M of SARS-CoV Urbani,[1],0.6
same,Binding of serum 37 to linear peptides of protein M of SARS-CoV Urbani,[1],0.5
same,Binding of serum 37 to looped/cyclic peptides of protein M of SARS-CoV Urbani,[1],0.8
same,Binding of serum 62 to linear peptides of protein M of SARS-CoV Urbani,[1],0.5
same,Binding of serum 62 to looped/cyclic peptides of protein M of SARS-CoV Urbani,[1],0.7
same,Binding of serum London to linear peptides of protein M of SARS-CoV Urbani,[1],0.4
same,Binding of serum London to looped/cyclic peptides of protein M of SARS-CoV Urbani,[1],0.2
same,Binding of serum SARS-green to linear peptides of protein M of SARS-CoV Urbani,[1],0.5
same,Binding of serum SARS-green to looped/cyclic peptides of protein M of SARS-CoV Urbani,[1],0.2
same,Binding of serum SARS-yellow to linear peptides of protein M of SARS-CoV Urbani,[1],0.2
same,Binding of serum SARS-yellow to looped/cyclic peptides of protein M of SARS-CoV Urbani,[1],0.7
same,Binding of Control Serum Blood-Bank to Looped peptides of the protein M of SARS-CoV Urbani,[2],0.8
same,Binding of Control serum Blood-bank to linear peptides of the protein M of SARS-CoV Urbani,[2],0.8
same,Binding of Control serum LUMC to linear peptides of the protein M of SARS-CoV Urbani,[2],0.8
same,Binding of Control serum LUMC to looped peptides of the protein M of SARS-CoV Urbani,[2],0.7
same,Rabbit serum linear peptides,[3],0.2
same,Rabbit serum looped peptides,[3],0.4
SPLFLIVAALVFLIL,Binding of serum 1a to linear peptides of protein X4 of SARS-CoV Urbani,[1],0.6
same,Binding of serum 1a to looped/cyclic peptides of protein X4 of SARS-CoV Urbani,[1],0.6
same,Binding of serum 1b to linear peptides of protein X4 of SARS-CoV Urbani,[1],0.2
same,Binding of serum 1b to looped/cyclic peptides of protein X4 of SARS-CoV Urbani,[1],0.4
same,Binding of serum 2 to linear peptides of protein X4 of SARS-CoV Urbani,[1],0.5
same,Binding of serum 2 to looped/cyclic peptides of protein X4 of SARS-CoV Urbani,[1],0.7
same,Binding of serum 6 to linear peptides of protein X4 of SARS-CoV Urbani,[1],0.2
same,Binding of serum 6 to looped/cyclic peptides of protein X4 of SARS-CoV Urbani,[1],0.3
same,Binding of serum 37 to linear peptides of protein X4 of SARS-CoV Urbani,[1],0.6
same,Binding of serum 37 to looped/cyclic peptides of protein X4 of SARS-CoV Urbani,[1],0.7
same,Binding of serum 62 to linear peptides of protein X4 of SARS-CoV Urbani,[1],0.6
same,Binding of serum 62 to looped/cyclic peptides of protein X4 of SARS-CoV Urbani,[1],0.2
same,Binding of serum London to linear peptides of protein X4 of SARS-CoV Urbani,[1],0.6
same,Binding of serum London to looped/cyclic peptides of protein X4 of SARS-CoV Urbani,[1],0.4
same,Binding of serum SARS-green to linear peptides of protein X4 of SARS-CoV Urbani,[1],0.5
same,Binding of serum SARS-green to looped/cyclic peptides of protein X4 of SARS-CoV Urbani,[1],0.6
same,Binding of serum SARS-yellow to linear peptides of protein X4 of SARS-CoV Urbani,[1],0.3
same,Binding of serum SARS-yellow to looped/cyclic peptides of protein X4 of SARS-CoV Urbani,[1],0.3
same,Binding of Control Serum Blood-Bank to Looped peptides,[2],0.3
same,Binding of Control serum Blood-bank to linear peptides,[2],0.4
same,Binding of Control serum LUMC to linear peptides,[2],0.3
same,Binding of Control serum LUMC to looped peptides,[2],0.5
same,Rabbit serum linear peptides,[3],0.5
same,Rabbit serum looped peptides,[3],0.8
